Here are results for 15 compounds from PMC7356367, “Design, Synthesis, and Biological Evaluation of 8-Mercapto-3,7-Dihydro-1H-Purine-2,6-Diones as Potent Inhibitors of SIRT1, SIRT2, SIRT3, and SIRT5” (Molecules, 2020).

Each structure is given as a SMILES string.

Data set [1] has as its system SIRT2. To be noted: Figure 1, reported sirtuin inhibitors; cited from earlier work.
Another data set has as its target T1, SIRT5 (Homo sapiens, UniProt Q9NXA8).
T1 sequence (Q9NXA8 37-310): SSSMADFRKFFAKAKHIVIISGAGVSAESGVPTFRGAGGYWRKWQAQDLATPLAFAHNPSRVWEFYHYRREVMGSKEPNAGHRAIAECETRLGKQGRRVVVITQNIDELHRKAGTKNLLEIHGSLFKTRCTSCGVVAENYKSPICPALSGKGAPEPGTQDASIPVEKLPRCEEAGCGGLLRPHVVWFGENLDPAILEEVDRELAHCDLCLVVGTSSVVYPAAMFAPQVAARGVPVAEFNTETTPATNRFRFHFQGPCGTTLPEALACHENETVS
Put plainly: Fluorescent deacylation assay (succinyl-peptide), SIRT5.

The target of data set [2] is T2, SIRT1 (Homo sapiens, UniProt Q96EB6).
T2 construct: Human SIRT1 (183-505-(GGGS)2-641-665); His6 with sumo-cleavage site (N); made in house; host or cells: E. coli BL21
T2 sequence (Q96EB6 with tags, fused parts or gaps): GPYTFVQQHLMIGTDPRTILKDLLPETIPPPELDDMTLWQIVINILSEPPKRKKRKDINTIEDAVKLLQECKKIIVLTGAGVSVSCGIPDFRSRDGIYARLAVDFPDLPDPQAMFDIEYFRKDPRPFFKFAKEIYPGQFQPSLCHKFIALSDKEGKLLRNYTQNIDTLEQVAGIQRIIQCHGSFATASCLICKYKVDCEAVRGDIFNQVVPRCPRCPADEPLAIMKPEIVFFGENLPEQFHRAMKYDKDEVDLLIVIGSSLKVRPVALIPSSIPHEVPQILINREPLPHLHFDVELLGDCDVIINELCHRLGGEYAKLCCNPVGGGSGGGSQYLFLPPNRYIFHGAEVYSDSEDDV
Put plainly: Fluorescent deacetylation assay, SIRT1. It is filed as biochemical. The conditions noted are these: 0.8 μM SIRT1, 10 μM acetyl-peptide, 1.2 mM NAD+. The protocol: All compounds were dissolved in 10 mM stock solution in DMSO. […] The fluorescence was measured using a microplate reader (SpectraMax M5, Molecular Devices, San Jose, CA, USA) with excitation at 320 nm and emission at 420 nm. All reactions were done in triplicate.
IC50 were determined for other sirtuins using the same assay as for SIRT3.

Another data set addresses T3, SIRT3 (Homo sapiens, UniProt Q9NTG7).
T3 sequence (Q9NTG7 118-399): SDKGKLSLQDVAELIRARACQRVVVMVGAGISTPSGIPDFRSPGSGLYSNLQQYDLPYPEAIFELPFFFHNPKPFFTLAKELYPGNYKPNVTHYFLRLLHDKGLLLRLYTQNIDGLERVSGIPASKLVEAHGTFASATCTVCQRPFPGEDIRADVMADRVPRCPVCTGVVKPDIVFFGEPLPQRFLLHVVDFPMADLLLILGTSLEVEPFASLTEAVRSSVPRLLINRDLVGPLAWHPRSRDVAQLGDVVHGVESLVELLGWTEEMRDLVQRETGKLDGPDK
Put plainly: Fluorescent deacetylation assay with internally quenched acetyl peptide and trypsin development, SIRT3.

For data set [3], the target named is T4, SIRT2 (Homo sapiens, UniProt Q8IXJ6).
T4 sequence (Q8IXJ6 1-389): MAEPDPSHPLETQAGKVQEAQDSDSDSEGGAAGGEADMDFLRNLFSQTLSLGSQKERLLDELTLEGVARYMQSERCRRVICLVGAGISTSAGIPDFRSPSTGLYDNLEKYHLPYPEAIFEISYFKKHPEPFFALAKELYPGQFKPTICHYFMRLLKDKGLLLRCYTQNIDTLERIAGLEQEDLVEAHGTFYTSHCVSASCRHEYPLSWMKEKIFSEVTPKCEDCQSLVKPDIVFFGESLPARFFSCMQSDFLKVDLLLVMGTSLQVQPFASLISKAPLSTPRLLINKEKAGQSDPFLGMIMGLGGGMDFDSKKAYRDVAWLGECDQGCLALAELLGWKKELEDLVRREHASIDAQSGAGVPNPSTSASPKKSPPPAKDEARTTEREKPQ
Kind of data set: Fluorescent deacetylation assay, SIRT2.

In another data set the target is SIRT6 (Homo sapiens, UniProt Q8N6T7). Kind of data set: Fluorescent deacetylation assay, SIRT6.
Chain of SIRT6 (Q8N6T7 whole entry): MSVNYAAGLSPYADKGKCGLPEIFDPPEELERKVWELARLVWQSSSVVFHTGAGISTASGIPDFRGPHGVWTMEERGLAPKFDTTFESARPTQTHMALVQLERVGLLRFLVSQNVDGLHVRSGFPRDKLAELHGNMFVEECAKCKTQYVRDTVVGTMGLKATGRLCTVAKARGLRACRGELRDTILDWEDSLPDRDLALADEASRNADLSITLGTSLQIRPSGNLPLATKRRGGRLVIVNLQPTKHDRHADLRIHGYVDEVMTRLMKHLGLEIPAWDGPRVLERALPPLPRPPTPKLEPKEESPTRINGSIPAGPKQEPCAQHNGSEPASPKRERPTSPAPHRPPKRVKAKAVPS
A short description of data set [4]: Stability in the assay buffer and activity assay by HPLC. To be noted: overall statement.
Data set [5] in a line: Stability of DMSO solution by mass spectrometry. To be noted: nine months, refrigerator 4 °C.
In the next data set the test system is SH-SY5Y cells. Kind of data set: MTT assay for toxicity. The conditions noted are these: 24 hours. The format is cell-based. The protocol: To evaluate the toxicity of the compounds, we carried out MTT assays on SH-SY5Y
cells incubated with various concentrations of compounds 4 and 15 for 24 hours. We […]
Background: Tetrazolium dyes change colour on reduction, which living cells bring about.

The test system of data set [6] is SIRT1. The conditions noted are these: Figure 1, reported sirtuin inhibitors; cited from earlier work.

Usually IC50 stands for the concentration at which inhibition is half-maximal. For the compound `Cc1cc(C)nc(SCC(=O)Nc2ncc(Cc3cccc4ccccc34)s2)n1` [SirReal2], the IC50 in the data set on SIRT2 [1] was […].
One may read the melting point as the temperature, or range, at which the solid turns liquid. On to `CCn1c(=O)n(CCc2ccc(F)cc2)c(=O)c2[nH]c(SSc3nc4c([nH]3)c(=O)n(CCc3ccc(F)cc3)c(=O)n4CC)nc21` [Compound 16, 8,8’-Disulfanediylbis(3-ethyl-1-(4-fluorophenethyl)-3,7-dihydro-1H-purine-2,6-dione)], for which the melting point lay within 216 to 218 °C. This compound came in with an IC50 at SIRT5 of 0.84 ± 0.08 µM. This compound yielded an IC50 on SIRT1 [2] of 0.19 ± 0.01 µM. The compound also gave a half-maximal inhibitory concentration (IC50) against SIRT3 of 0.46 ± 0.04 µM. This compound yielded an IC50 against SIRT2 [3] of 2.03 ± 0.04 µM. Moreover, the IC50 at SIRT6 came out at 111 ± 2.6 µM.
Regarding `CCn1c(=O)c2[nH]c(SSc3nc4c([nH]3)c(=O)n(CC)c(=O)n4CC)nc2n(CC)c1=O` [Compound 1, 8,8′-Disulfanediylbis(1,3-diethyl-3,7-dihydro-1H-purine-2,6-dione)], the IC50 against SIRT5 came to 0.42 ± 0.01 µM; against SIRT2 [3], 1.17 ± 0.04 µM; against SIRT6 it was 116 ± 6.2 µM. The “Stability in the activity assays” value in data set [4] is reported as “stable in the activity assays”. In data set [5], the “Stability in DMSO” value is given as “remains stable”.
For the compound `CS(=O)(=O)NCCC1CCN(c2ncnc3cc(C(N)=O)sc23)CC1` [ELT-31, reference compound], the IC50 is greater than 500 µM against SIRT5, 0.12 ± 0.01 µM against SIRT2 [3] and 462 ± 14.9 µM against SIRT6.
With `CCn1c(=O)n(CCc2ccccc2)c(=O)c2[nH]c(SSc3nc4c([nH]3)c(=O)n(CCc3ccccc3)c(=O)n4CC)nc21` [Compound 15, 8,8’-Disulfanediylbis(3-ethyl-1-phenethyl-3,7-dihydro-1H-purine-2,6-dione)], the melting point was 225 to 227 °C. The compound further came in with an IC50 against SIRT5 of 0.45 ± 0.01 µM. Besides, in the data set on SH-SY5Y cells, the “Toxicity (MTT) at 50 μM” value was “displayed toxicity” and the “Toxicity (MTT) at concentrations up to 20 μM” value is recorded as “nontoxic”. For the same compound, in [4], the “Stability in the activity assays” value was “stable”. For the same compound, at SIRT2 [3], the IC50 was 1.35 ± 0.05 µM. This compound yielded a half-maximal inhibitory concentration (IC50) against SIRT6 of 103 ± 6.3 µM.
`CCn1c(=O)n(CC2CCCO2)c(=O)c2[nH]c(SSc3nc4c([nH]3)c(=O)n(CC3CCCO3)c(=O)n4CC)nc21` (stereo not drawn) [Compound 14, 8,8’-Disulfanediylbis(3-ethyl-1-((tetrahydrofuran-2-yl)methyl)-3,7-dihydro-1H-purine-2,6-dione)]: the melting point lay within 166 to 168 °C. At SIRT5, this compound gave an IC50 of 0.54 ± 0.02 µM. Moreover, the IC50 at SIRT1 [2] was found to be 0.15 ± 0.02 µM. This compound also had an IC50 against SIRT3 of 0.69 ± 0.12 µM. Moreover, the “Fold enhanced activity compared to compound 12 (SIRT3)” value at SIRT3 (relative to compound 12) is recorded as 2.5 fold. Moreover, inhibition on SIRT2 [3] was half-maximal at 1.62 ± 0.05 µM (IC50). For the same compound, half-maximal inhibition against SIRT6 (IC50) required 127 ± 10.2 µM.
As to `CCCn1c(=O)c2[nH]c(SSc3nc4c([nH]3)c(=O)n(CCC)c(=O)n4CCC)nc2n(CCC)c1=O` [Compound 4, 8,8’-Disulfanediylbis(1,3-dipropyl-3,7-dihydro-1H-purine-2,6-dione)], the melting point fell in the range of 241 to 243 °C. Further, the midpoint of inhibition at SIRT5, the IC50, lay at 0.39 ± 0.03 µM. Further, in the data set with SH-SY5Y cells, the “Toxicity (MTT) at 50 μM” value was “displayed toxicity” and the “Toxicity (MTT) at concentrations up to 20 μM” value is reported as “nontoxic”. This compound also had an IC50 on SIRT2 [3] of 1.19 ± 0.06 µM. For the same compound, the concentration for half-maximal inhibition (IC50) against SIRT6 is 129 ± 16.1 µM.
For the compound `CCn1c(=O)n(CCc2ccc(N)cc2)c(=O)c2[nH]c(SSc3nc4c([nH]3)c(=O)n(CCc3ccc(N)cc3)c(=O)n4CC)nc21` [Compound 20, 8,8’-Disulfanediylbis(1-(4-aminophenethyl)-3-ethyl-3,7-dihydro-1H-purine-2,6-dione)], the concentration for half-maximal inhibition (IC50) was determined as 0.92 ± 0.04 µM against SIRT5; 0.49 ± 0.01 µM against SIRT1 [2]; 0.97 ± 0.06 µM on SIRT3; 4.61 ± 0.13 µM on SIRT2 [3]; 210 ± 5.9 µM at SIRT6.
With `Cc1ccc(C(=O)Nc2ccc(S(=O)(=O)O)c3cc(S(=O)(=O)O)cc(S(=O)(=O)O)c23)cc1NC(=O)c1cccc(NC(=O)Nc2cccc(C(=O)Nc3cc(C(=O)Nc4ccc(S(=O)(=O)O)c5cc(S(=O)(=O)O)cc(S(=O)(=O)O)c45)ccc3C)c2)c1` [suramin], the IC50 with SIRT2 [1] is 1.2 µM.
For the compound `CCn1c(=O)n(CC2CCOCC2)c(=O)c2[nH]c(SSc3nc4c([nH]3)c(=O)n(CC3CCOCC3)c(=O)n4CC)nc21` [Compound 13, 8,8’-Disulfanediylbis(3-ethyl-1-((tetrahydro-2H-pyran-4-yl)methyl)-3,7-dihydro-1H-purine-2,6-dione)], the melting point lay in the range of 229 to 231 °C. The IC50 at SIRT5 was found to be 0.5 ± 0.01 µM. On SIRT2 [3], 2.25 ± 0.12 µM corresponded to half-maximal inhibition (IC50). Besides, half-maximal inhibition against SIRT6 (IC50) required 156 ± 6.5 µM.
On to `CCn1c(=O)n(CCc2ccc(OC)cc2)c(=O)c2[nH]c(SSc3nc4c([nH]3)c(=O)n(CCc3ccc(OC)cc3)c(=O)n4CC)nc21` [Compound 18, 8,8’-Disulfanediylbis(3-ethyl-1-(4-methoxyphenethyl)-3,7-dihydro-1H-purine-2,6-dione)], for which the melting point fell in the range of 216 to 219 °C. Further, the IC50 on SIRT2 [3] stood at 2.16 ± 0.08 µM. Further, the IC50 against SIRT6 worked out at 102 ± 9.1 µM.
For the compound `CC(C(=O)Nc1cccc(/N=C/c2c(O)ccc3ccccc23)c1)c1ccccc1` (stereo not drawn) [salermide], the IC50 with SIRT2 [1] was 45 µM; in the data set on SIRT1 [6], 76 µM.
Compound `CCn1c(=O)n(CCc2ccc(NC(=O)OC(C)(C)C)cc2)c(=O)c2[nH]c(SSc3nc4c([nH]3)c(=O)n(CCc3ccc(NC(=O)OC(C)(C)C)cc3)c(=O)n4CC)nc21` [Compound 17, di-tert-Butyl(((Disulfanediylbis(3-ethyl-2,6-dioxo-2,3,6,7-tetrahydro-1H-purine-8,1-diyl))bis(ethane-2,1-diyl))bis(4,1-phenylene))dicarbamate] displayed a melting point of 168 to 171 °C. The same compound returned an IC50 on SIRT5 of 1 ± 0.03 µM. Also, at SIRT1 [2], 0.41 ± 0.04 µM corresponded to half-maximal inhibition (IC50). Moreover, the IC50 at SIRT3 turned out to be 1.15 ± 0.08 µM. Moreover, it took 2.19 ± 0.08 µM to reach half-maximal inhibition against SIRT2 [3] (IC50). The IC50 at SIRT6 turned out to be 128 ± 4.1 µM.
In the case of `CCn1c(=O)n(CC(C)C)c(=O)c2[nH]c(SSc3nc4c([nH]3)c(=O)n(CC(C)C)c(=O)n4CC)nc21` [Compound 12, 8,8’-Disulfanediylbis(3-ethyl-1-isobutyl-3,7-dihydro-1H-purine-2,6-dione)], the melting point was in the range of 240 to 242 °C. For the same compound, the IC50 against SIRT5 amounted to 1.51 ± 0.1 µM. The compound further yielded an IC50 at SIRT1 [2] of 0.43 ± 0.03 µM. Half-maximal inhibition against SIRT3 (IC50) was put at 1.77 ± 0.05 µM. The IC50 on SIRT2 [3] was 4.86 ± 0.08 µM. For the same compound, half-maximal inhibition against SIRT6 (IC50) was put at 297 ± 11.3 µM.
Consider `CCn1c(=O)n(CCC(=O)Nc2cccc(C(F)(F)F)c2)c(=O)c2[nH]c(SSc3nc4c([nH]3)c(=O)n(CCC(=O)Nc3cccc(C(F)(F)F)c3)c(=O)n4CC)nc21` [Compound 19, 3,3’-(Disulfanediylbis(3-ethyl-2,6-dioxo-2,3,6,7-tetrahydro-1H-purine-8,1-diyl))bis(N-(3-(trifluoromethyl)phenyl)propanamide)], for which the melting point was 174 to 175 °C. Besides, at SIRT5, the half-maximal inhibitory concentration (IC50) turned out to be 26.1 ± 3.15 µM. The compound also displayed an IC50 against SIRT1 [2] of 1.87 ± 0.04 µM. This compound came in with a half-inhibitory concentration (IC50) against SIRT3 of 8.52 ± 0.22 µM. The “Fold reduced inhibitory activity compared with 15 (SIRT3)” value on SIRT3 (relative to compound 15) is 23 fold. Also, it took 9.44 ± 0.19 µM to reach half-maximal inhibition against SIRT2 [3] (IC50). This compound displayed an IC50 against SIRT6 of 452 ± 9.8 µM.
